According to US20130102595A1 (Curis, Inc., priority 2011, published 2013):

Key:
[1] = system: LN-Cap; assay: Cell proliferation assay (CellTiter-Glo); assay type: cell-based; conditions: Homo sapiens, LNCaP; Prostate; 72 hours, 0.5% fetal bovine serum; read-out: antiproliferative activity IC50, LN-Cap
How it was run: (§1)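 Proliferation is gauged by cellular ATP via firefly luciferase luminescence following 72-hour compound treatment in 0.5% serum.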

[2] = system: PC-3; assay: Cell proliferation assay (CellTiter-Glo); assay type: cell-based; conditions: Homo sapiens, Prostate, 72 hours, 0.5% fetal bovine serum, read-out: antiproliferative activity IC50, PC-3
How it was run: as §1

[3] = system: OVCAR-5; assay: Cell proliferation assay (CellTiter-Glo); assay type: cell-based; conditions: Homo sapiens, Ovarian, 72 hours, 0.5% fetal bovine serum, read-out: antiproliferative activity IC50, OVCAR-5
How it was run: as §1

[4] = biological target: T1, PI3Kδ (p110δ/p85α) (Homo sapiens, UniProt O00329); assay: PI3Kδ ADP-Glo assay; assay type: biochemical; conditions: 20 μM PIP2, 10 μM ATP, 90 minutes
T1 construct: GST (N); made in house; host or cells: Baculovirus-infected Sf9 cells
Method: (c) an In Vitro Assay which Determines the Ability of a Test Compound to Inhibit PI3Kδ.
Activity of PI3Kδ was measured using ADP-Glo assay from Promega. PI3Kδ, a complex of N-terminal GST-tagged recombinant full-length human p110δ (GenBank, Accession No. NM_005026) and untagged recombinant full length human p85α (GenBank Accession No. XM—043865) were co-expressed in a Baculovirus infected Sf9 cell expression system. The ADP-Glo assay was performed to measure the amount of ADP generated from ATP hydrolysis coupled with PIP2 phosphorylation by the purified recombinant PI3Kδ (p110δ/p85α). PI3Kδ was incubated with 20 μM PIP2 substrate in the reaction buffer (10 mM Tris-HCl, pH 7.5, 50 mM NaCl, 5 mM MgCl2, 10 μM ATP and 0.5% DMSO) for 90 minutes at room temperature. The ADP generated was then detected by ADP-Glo assay from Promega, a luminescent ADP detection assay. The ADP-Glo assay is performed in two steps; first, after the kinase reaction, ADP-Glo Reagent is added to terminate the kinase reaction and deplete the remaining ATP. Second, the Kinase Detection Reagent is added to simultaneously convert ADP to ATP and allow the newly synthesized ATP to be measured using a luciferase/luciferin reaction.

[5] = biological target: T2, PI3Kγ (p120γ) (Homo sapiens, UniProt P48736); assay: PI3Kγ ADP-Glo assay; assay type: biochemical; conditions: 20 μM PIP2, 10 μM ATP, 90 minutes
T2 construct: His (N); made in house; host or cells: Baculovirus-infected Sf9 cells
Method: (d) an In Vitro Assay which Determines the Ability of a Test Compound to Inhibit PI3Kγ.
Activity of PI3Kγ was measured using ADP-Glo assay from Promega. PI3Kγ, N-terminal His-tagged recombinant full-length human p120γ (GenBank, Accession No. AF327656) was expressed in a Baculovirus infected Sf9 cell expression system. The ADP-Glo assay was performed to measure the amount of ADP generated from ATP hydrolysis coupled with PIP2 phosphorylation by the purified recombinant PI3Kγ […]. PI3Kγ was incubated with 20 μM PIP2 substrate in the reaction buffer (10 mM Tris-HCl, pH 7.5, 50 mM NaCl, 5 mM MgCl2, 10 μM ATP and 0.5% DMSO) for 90 minutes at room temperature. The ADP generated was then detected by ADP-Glo assay from Promega, a luminescent ADP detection assay. The ADP-Glo assay is performed in two steps; first, after the kinase reaction, ADP-Glo Reagent is added to terminate the kinase reaction and deplete the remaining ATP. Second, the Kinase Detection Reagent is added to simultaneously convert ADP to ATP and allow the newly synthesized ATP to be measured using a luciferase/luciferin reaction.

T1 sequence (O00329 whole entry): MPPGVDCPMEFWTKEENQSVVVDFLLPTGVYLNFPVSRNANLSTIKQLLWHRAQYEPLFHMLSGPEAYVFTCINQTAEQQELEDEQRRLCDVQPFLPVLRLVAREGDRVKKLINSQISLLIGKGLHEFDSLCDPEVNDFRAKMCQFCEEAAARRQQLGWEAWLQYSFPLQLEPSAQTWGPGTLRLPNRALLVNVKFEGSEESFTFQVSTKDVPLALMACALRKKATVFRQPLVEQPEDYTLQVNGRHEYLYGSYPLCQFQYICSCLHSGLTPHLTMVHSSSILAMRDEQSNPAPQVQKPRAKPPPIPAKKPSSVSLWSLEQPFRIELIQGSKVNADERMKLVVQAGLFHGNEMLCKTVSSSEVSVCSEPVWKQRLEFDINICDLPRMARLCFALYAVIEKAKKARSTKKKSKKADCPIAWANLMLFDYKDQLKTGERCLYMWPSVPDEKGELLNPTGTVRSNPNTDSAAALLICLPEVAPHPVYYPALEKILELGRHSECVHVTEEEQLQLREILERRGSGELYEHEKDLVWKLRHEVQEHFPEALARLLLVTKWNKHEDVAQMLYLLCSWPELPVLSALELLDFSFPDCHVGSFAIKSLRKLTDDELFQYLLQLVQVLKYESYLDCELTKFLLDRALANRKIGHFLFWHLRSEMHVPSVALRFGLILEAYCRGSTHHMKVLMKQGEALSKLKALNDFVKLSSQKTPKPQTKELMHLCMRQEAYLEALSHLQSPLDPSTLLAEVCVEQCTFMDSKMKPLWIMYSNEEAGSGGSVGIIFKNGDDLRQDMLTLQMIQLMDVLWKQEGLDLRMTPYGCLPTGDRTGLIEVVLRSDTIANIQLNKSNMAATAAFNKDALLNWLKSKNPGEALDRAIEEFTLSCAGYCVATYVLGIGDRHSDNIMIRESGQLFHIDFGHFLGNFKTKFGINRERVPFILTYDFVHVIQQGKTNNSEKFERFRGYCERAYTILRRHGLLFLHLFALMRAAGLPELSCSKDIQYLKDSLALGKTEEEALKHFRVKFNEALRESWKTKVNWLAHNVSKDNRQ
T1 sequence (P27986 whole entry partner): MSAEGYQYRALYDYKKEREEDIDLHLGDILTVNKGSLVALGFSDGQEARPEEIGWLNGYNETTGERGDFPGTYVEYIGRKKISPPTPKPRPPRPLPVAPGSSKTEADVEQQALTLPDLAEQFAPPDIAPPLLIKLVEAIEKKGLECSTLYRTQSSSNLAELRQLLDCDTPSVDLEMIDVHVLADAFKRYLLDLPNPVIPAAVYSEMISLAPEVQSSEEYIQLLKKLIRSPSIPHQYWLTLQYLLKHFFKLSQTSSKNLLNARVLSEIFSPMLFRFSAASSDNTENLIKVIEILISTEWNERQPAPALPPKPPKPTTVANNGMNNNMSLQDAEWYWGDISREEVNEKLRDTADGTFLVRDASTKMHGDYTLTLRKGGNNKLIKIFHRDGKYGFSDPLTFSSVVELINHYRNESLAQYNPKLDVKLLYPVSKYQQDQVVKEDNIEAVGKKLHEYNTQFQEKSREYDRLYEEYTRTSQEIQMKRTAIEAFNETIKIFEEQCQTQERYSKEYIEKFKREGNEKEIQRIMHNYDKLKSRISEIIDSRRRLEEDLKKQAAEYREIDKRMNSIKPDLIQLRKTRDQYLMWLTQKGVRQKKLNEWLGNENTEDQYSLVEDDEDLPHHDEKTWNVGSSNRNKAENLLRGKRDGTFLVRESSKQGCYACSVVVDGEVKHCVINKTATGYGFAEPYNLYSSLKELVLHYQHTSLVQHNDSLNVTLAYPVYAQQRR
T2 sequence (P48736 whole entry): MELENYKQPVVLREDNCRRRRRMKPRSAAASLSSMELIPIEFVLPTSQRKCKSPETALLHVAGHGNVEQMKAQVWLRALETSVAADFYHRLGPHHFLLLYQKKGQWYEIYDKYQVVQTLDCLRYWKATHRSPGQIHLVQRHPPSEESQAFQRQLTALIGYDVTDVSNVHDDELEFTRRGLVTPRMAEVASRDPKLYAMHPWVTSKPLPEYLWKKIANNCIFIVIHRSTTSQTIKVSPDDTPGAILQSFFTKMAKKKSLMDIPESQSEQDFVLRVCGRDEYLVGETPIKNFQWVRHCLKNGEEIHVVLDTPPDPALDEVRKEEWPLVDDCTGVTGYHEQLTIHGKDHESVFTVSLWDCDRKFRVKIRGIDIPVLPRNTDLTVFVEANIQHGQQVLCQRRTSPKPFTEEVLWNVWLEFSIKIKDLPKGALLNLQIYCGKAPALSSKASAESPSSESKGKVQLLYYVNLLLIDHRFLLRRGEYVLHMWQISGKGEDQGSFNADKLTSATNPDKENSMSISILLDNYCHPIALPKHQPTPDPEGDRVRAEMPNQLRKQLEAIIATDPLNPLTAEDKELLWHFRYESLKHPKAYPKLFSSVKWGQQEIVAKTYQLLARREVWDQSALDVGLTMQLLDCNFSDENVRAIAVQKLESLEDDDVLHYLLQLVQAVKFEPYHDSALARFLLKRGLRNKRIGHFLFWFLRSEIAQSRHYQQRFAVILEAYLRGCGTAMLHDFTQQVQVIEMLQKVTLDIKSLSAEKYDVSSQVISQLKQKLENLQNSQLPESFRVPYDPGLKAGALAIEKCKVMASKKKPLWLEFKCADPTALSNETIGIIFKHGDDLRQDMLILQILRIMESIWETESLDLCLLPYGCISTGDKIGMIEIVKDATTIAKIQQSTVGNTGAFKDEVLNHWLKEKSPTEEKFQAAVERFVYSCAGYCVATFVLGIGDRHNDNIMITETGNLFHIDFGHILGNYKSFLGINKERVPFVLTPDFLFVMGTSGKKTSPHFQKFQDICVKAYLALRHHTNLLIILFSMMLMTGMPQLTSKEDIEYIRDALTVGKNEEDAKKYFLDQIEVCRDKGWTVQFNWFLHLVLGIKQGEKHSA

SMILES	IC50 [1]	IC50 [2]	IC50 [3]	IC50 [4]	IC50 [5]	melting point
CN(Cc1cc2nc(-c3ccc(N)cc3)nc(N3CCOCC3)c2s1)c1ncc(C(=O)NO)cn1 [Compound 150, 2-(((2-(4-aminophenyl)-4-morpholinothieno[3,2-d]pyrimidin-6-yl)methyl)(methyl)amino)-N-hydroxypyrimidine-5-carboxamide]	< 10 nM	10 to 100 nM	< 10 nM	–	–	–
CNc1ccc(-c2nc(N3CCOCC3)c3sc(CN(C)c4ncc(C(=O)NO)cn4)cc3n2)cn1 [Compound 111, N-Hydroxy-2-(methyl((2-(6-(methylamino)pyridin-3-yl)-4-morpholinothieno[3,2-d]pyrimidin-6-yl)methyl)amino)pyrimidine-5-carboxamide]	–	–	–	< 100 nM	100 to 1000 nM	–
CN(Cc1cc2nc(-c3cccc4[nH]ncc34)nc(N3CCOCC3)c2s1)c1ncc(C(=O)NO)cn1 [Compound 54, 2-(((2-(1H-indazol-4-yl)-4-morpholinothieno[3,2-d]pyrimidin-6-yl)methyl)(methyl)amino)-N-hydroxypyrimidine-5-carboxamide]	–	–	–	< 100 nM	< 100 nM	197 to 200 °C
